These results are taken from US4311699A, “Aminoacid derivatives of cephalosporin compounds” (priority 1980, dated 1982).

Values after ≈ are worked out from the molar mass of the structure shown. Bounds are passed on as bounds.

Holding throughout (assay): in vitro antibacterial activity, minimal inhibitory concentration
Common to all, as to format: cell-based

One experiment relates to E. coli Brig. As to conditions: for MIC: Escherichia coli. From the text: (§1) The compounds of the invention are new chemical compounds that are used as pharmacological agents and especially as broad spectrum antibacterial agents. They are active in vitro against strains of both gram-positive and gram-negative bacteria.
(§2) Minimal Inhibitory Concentration (μg/ml)

A further experiment deals with E. coli Vogel. As to conditions: for MIC: Escherichia coli.
Excerpt: as §1, §2

A further experiment concerns Entero. cloacae. Conditions: for MIC: Enterobacter cloacae.
Excerpt: as §1, §2

For another experiment, the system named is Klebs. pneu.
Excerpt: as §1, §2

A further experiment deals with Prot. vulg.
Excerpt: as §1, §2

The next experiment relates to Pseudomonas #28. As to conditions: Pseudomonas #28, in vitro; for MIC: read-out: Minimal Inhibitory Concentration.
Excerpt: as §1, §2

The next experiment relates to Pseudomonas BRK 12-4-4. As to conditions: Pseudomonas BRK 12-4-4, in vitro; for MIC: BRK1244.
Excerpt: as §1, §2

The test system of a further experiment is Pseudomonas UI 18. Conditions: Pseudomonas UI 18, in vitro; for MIC: UI18.
Excerpt: as §1, §2

The next experiment concerns Serr. marces.
Excerpt: as §1, §2

In a further experiment the test system is Staph. aureus S18733. Conditions: for MIC: Staphylococcus aureus.
Excerpt: as §1, §2

For another experiment, the system named is Staph. aureus UC-76. As to conditions: Staph. aureus UC-76, in vitro; for MIC: Staphylococcus aureus, UC76.
Excerpt: as §1, §2

For another experiment, the system named is Strep. fec.
Excerpt: as §1, §2

In the case of `CC(=O)N1C[C@H](O)C[C@H]1C(=O)Nc1ccc(-c2ncc(C(=O)N[C@@H](C(=O)NC3C(=O)N4C(C(=O)O)=C(CSc5nnnn5C)CS[C@H]34)c3ccccc3)c(O)n2)cc1` (stereo partly drawn) [Example 30, N-[2[4-(N-Acetyl-L-hydroxyprolylamino)phenyl]-4-hydroxy-5-pyrimidinylcarbonyl]-7-[D-2-amino2-phenylacetamido]-3-[[(1-methyl-1H-tetrazol-5-yl)thio]methyl]-3-cephem-4-carboxylic acid], the “Minimal Inhibitory Concentration” value in the experiment with E. coli Brig was 12.5 µg/mL; in the experiment with E. coli Vogel, 3.1 µg/mL; with Entero. cloacae, 6.3 µg/mL; with Klebs. pneu. it was 3.1 µg/mL; with Prot. vulg. it was 25 µg/mL; in the experiment with Pseudomonas #28, 6.3 µg/mL. Besides, the “Minimal Inhibitory Concentration” value is 12.5 µg/mL in the experiment with Pseudomonas BRK 12-4-4; 6.3 µg/mL in the experiment with Pseudomonas UI 18; over 50 µg/mL in the experiment with Serr. marces.; 12.5 µg/mL with Staph. aureus S18733; 3.1 µg/mL with Staph. aureus UC-76; over 50 µg/mL in the experiment on Strep. fec..
For `CC(=O)NC(C)C(=O)Nc1ccc(-c2ncc(C(=O)N[C@@H](C(=O)NC3C(=O)N4C(C(=O)O)=C(CSc5nnnn5C)CSC34)c3ccccc3)c(O)n2)cc1` (mixture of isomers) [Example 24, N-[2-[4-(N-Acetyl-DL-alanylamino)phenyl]-4-hydroxy-5-pyrimidinylcarbonyl]-7-[D-2-amino-2-phenylacetamido]-3-[[(1-methyl-1H-tetrazol-5-yl)thio]methyl]-3-cephem-4-carboxylic acid], the MIC with E. coli Brig came to 12.5 µg/mL; in the experiment with E. coli Vogel it was 3.1 µg/mL; with Entero. cloacae, 12.5 µg/mL; against Klebs. pneu., 1.6 µg/mL; with Prot. vulg., 25 µg/mL; with Pseudomonas #28, 6.3 µg/mL. Moreover, the MIC against Pseudomonas BRK 12-4-4 was 12.5 µg/mL; with Pseudomonas UI 18 it was 6.3 µg/mL; against Serr. marces. it was 50 µg/mL; in the experiment with Staph. aureus S18733 it was 3.1 µg/mL; against Staph. aureus UC-76 it was 1.6 µg/mL; against Strep. fec., 50 µg/mL.
Consider `CC(=O)N[C@H](C)C(=O)Nc1ccc(-c2ncc(C(=O)N[C@@H](C(=O)NC3C(=O)N4C(C(=O)O)=C(CSc5nnnn5CC(=O)O)CSC34)c3ccc(O)cc3)c(O)n2)cc1` (stereo partly drawn) [Example 37, N-[2-[4-(N-Acetyl-D-alanylamino)phenyl]-4-hydroxy-5-pyrimidinylcarbonyl)-7-[D-2amino-2-(4-hydroxyphenyl)acetamido]-3-[[(1-carboxymethyl-1H-tetrazol-5-yl)thio]methyl]-3-cephem-4-carboxylic acid], for which the MIC in the experiment with E. coli Brig turned out to be 12.5 µg/mL (≈ 14.7 µM); against E. coli Vogel, 3.1 µg/mL (≈ 3.66 µM); against Entero. cloacae, 12.5 µg/mL (≈ 14.7 µM); with Klebs. pneu. it was 12.5 µg/mL (≈ 14.7 µM); with Prot. vulg. it was 1.6 µg/mL (≈ 1.89 µM); with Pseudomonas #28, 12.5 µg/mL (≈ 14.7 µM). Also, the MIC against Pseudomonas BRK 12-4-4 was 12.5 µg/mL (≈ 14.7 µM); in the experiment with Pseudomonas UI 18, 6.3 µg/mL (≈ 7.43 µM); against Serr. marces. it was over 50 µg/mL; against Staph. aureus S18733, 25 µg/mL (≈ 29.5 µM); with Staph. aureus UC-76, 25 µg/mL (≈ 29.5 µM); in the experiment on Strep. fec., over 50 µg/mL.
In the case of `CC(=O)NC(CCC(N)=O)C(=O)Nc1ccc(-c2ncc(C(=O)N[C@@H](C(=O)N[C@@H]3C(=O)N4C(C(=O)O)=C(COC(C)=O)CS[C@H]34)c3ccccc3)c(O)n2)cc1` (mixture of isomers) [Example 14, N-[2-[4-(N-Acetyl-DL-glutaminylamino)phenyl]-4-hydroxy-5-pyrimidinylcarbonyl]-7-[D-2-amino-2phenylacetamido]-3-acetoxymethyl-3-cephem-4-carboxylic acid], the MIC against E. coli Brig turned out to be 25 µg/mL; in the experiment with E. coli Vogel, 6.3 µg/mL; with Entero. cloacae it was 50 µg/mL; with Klebs. pneu., 12.5 µg/mL; against Prot. vulg., 25 µg/mL; with Pseudomonas #28 it was 6.3 µg/mL. Besides, the MIC against Pseudomonas BRK 12-4-4 was 12.5 µg/mL; against Pseudomonas UI 18 it was 12.5 µg/mL; in the experiment on Serr. marces. it was over 50 µg/mL; against Staph. aureus S18733, 6.3 µg/mL; in the experiment on Staph. aureus UC-76, 1.6 µg/mL; in the experiment on Strep. fec., 50 µg/mL.
Take `CC(=O)N[C@H](C)C(=O)Nc1ccc(-c2ncc(C(=O)N[C@@H](C(=O)N[C@@H]3C(=O)N4C(C(=O)O)=C(COC(N)=O)CS[C@H]34)c3ccccc3)c(O)n2)cc1` [Example 21]: the MIC came to 25 µg/mL (≈ 34.1 µM) with E. coli Brig; 12.5 µg/mL (≈ 17.1 µM) against E. coli Vogel; 25 µg/mL (≈ 34.1 µM) in the experiment on Entero. cloacae; 12.5 µg/mL (≈ 17.1 µM) against Klebs. pneu.; 12.5 µg/mL (≈ 17.1 µM) against Prot. vulg.; 3.1 µg/mL (≈ 4.23 µM) with Pseudomonas #28. Further, the MIC against Pseudomonas BRK 12-4-4 was 12.5 µg/mL (≈ 17.1 µM); in the experiment with Pseudomonas UI 18 it was 12.5 µg/mL (≈ 17.1 µM); in the experiment with Serr. marces., over 50 µg/mL; against Staph. aureus S18733 it was 1.6 µg/mL (≈ 2.18 µM); against Staph. aureus UC-76, 0.8 µg/mL (≈ 1.09 µM); in the experiment with Strep. fec. it was 25 µg/mL (≈ 34.1 µM).
On to `CC(=O)N[C@H](C)C(=O)Nc1ccc(-c2ncc(C(=O)N[C@@H](C(=O)N[C@@H]3C(=O)N4C(C(=O)O)=C(COC(C)=O)CS[C@H]34)c3ccccc3)c(O)n2)cc1` [Example 1, N-[2-[4-(N-Acetyl-D-alanylamino)phenyl]-4-hydroxy-5-pyrimidinyl-carbonyl]-7-[D-2-amino-2-phenylacetamido]-3-acetoxymethyl-3-cephem-4-carboxylic acid], for which the MIC against E. coli Brig came out at 25 µg/mL (≈ 34.2 µM); with E. coli Vogel, 6.3 µg/mL (≈ 8.61 µM); with Entero. cloacae, 50 µg/mL (≈ 68.3 µM); in the experiment with Klebs. pneu. it was 200 µg/mL (≈ 273 µM); in the experiment on Prot. vulg. it was 12.5 µg/mL (≈ 17.1 µM); in the experiment on Pseudomonas #28, 3.1 µg/mL (≈ 4.24 µM). Moreover, the MIC against Pseudomonas BRK 12-4-4 is 3.1 µg/mL (≈ 4.24 µM); in the experiment on Pseudomonas UI 18, 3.1 µg/mL (≈ 4.24 µM); against Serr. marces. it was 12.5 µg/mL (≈ 17.1 µM); in the experiment on Staph. aureus S18733 it was 3.1 µg/mL (≈ 4.24 µM); with Staph. aureus UC-76, 0.8 µg/mL (≈ 1.09 µM); with Strep. fec., 50 µg/mL (≈ 68.3 µM).
Take `CC(=O)N[C@H](C)C(=O)Nc1ccc(-c2ncc(C(=O)N[C@@H](C(=O)NC3C(=O)N4C(C(=O)O)=C(CSc5nnnn5CC(=O)O)CSC34)c3ccccc3)c(O)n2)cc1` (stereo partly drawn) [Example 34, N-[2-[4-(N-Acetyl-D-alanylamino)phenyl]-4-hydroxy-5-pyrimidinylcarbonyl]-7-[D-2-amino-2-phenylacetamido]-3-[[(1-carboxymethyl-1H-tetrazol-5-yl)thio]methyl]-3-cephem-4-carboxylic acid]: the MIC in the experiment on E. coli Brig was determined as 12.5 µg/mL (≈ 15 µM); in the experiment on E. coli Vogel, 3.1 µg/mL (≈ 3.73 µM); in the experiment on Entero. cloacae it was 12.5 µg/mL (≈ 15 µM); against Klebs. pneu. it was 6.3 µg/mL (≈ 7.57 µM); with Prot. vulg. it was 1.6 µg/mL (≈ 1.92 µM); in the experiment with Pseudomonas #28, 12.5 µg/mL (≈ 15 µM). Besides, the MIC was 12.5 µg/mL (≈ 15 µM) with Pseudomonas BRK 12-4-4; 12.5 µg/mL (≈ 15 µM) in the experiment with Pseudomonas UI 18; over 50 µg/mL with Serr. marces.; 25 µg/mL (≈ 30.1 µM) with Staph. aureus S18733; 12.5 µg/mL (≈ 15 µM) against Staph. aureus UC-76; over 50 µg/mL against Strep. fec..
With `CC(=O)NCCC(=O)Nc1ccc(-c2ncc(C(=O)N[C@@H](C(=O)N[C@@H]3C(=O)N4C(C(=O)O)=C(COC(C)=O)CS[C@H]34)c3ccccc3)c(O)n2)cc1` [Example 3], the MIC against E. coli Brig turned out to be 25 µg/mL (≈ 34.2 µM); against E. coli Vogel, 12.5 µg/mL (≈ 17.1 µM); in the experiment with Entero. cloacae it was 50 µg/mL (≈ 68.3 µM); against Klebs. pneu. it was 12.5 µg/mL (≈ 17.1 µM); against Prot. vulg. it was 12.5 µg/mL (≈ 17.1 µM); with Pseudomonas #28, 6.3 µg/mL (≈ 8.61 µM). For the same molecule, the MIC is 12.5 µg/mL (≈ 17.1 µM) in the experiment with Pseudomonas BRK 12-4-4; 6.3 µg/mL (≈ 8.61 µM) in the experiment with Pseudomonas UI 18; under 50 µg/mL in the experiment on Serr. marces.; 6.3 µg/mL (≈ 8.61 µM) in the experiment with Staph. aureus S18733; 1.6 µg/mL (≈ 2.19 µM) with Staph. aureus UC-76; 50 µg/mL (≈ 68.3 µM) in the experiment on Strep. fec..
